Results as given in publication PMC12677599 (Advanced Science, 2025).
Values joined by “and” are separate entries in the source; they are usually repeats but may differ in a detail not shown here. Equal values may be shown once. Read-outs that look alike come from different tables or passages of the source. Where a SMILES comes first, the peptide text is derived from it. [ ]: non-standard residue; d: D form. The star is where a group is joined. PEG4 = NCCOCCOCCOCCOCCC(=O)O; Piperidide = C1CCN(*)CC1

How the values were obtained:
H460 cell line = test: cells; type: cell-based
Description: (§1) MTT assay was conducted as previously described.^[ [44] ^] Tumor cell lines (NCI‐H460, NCI‐H838, HT‐1080, MCF‐7, PC‐3, U‐251‐MG, and U‐87 MG) were seeded in 96‐well plates at a density of 8000 cells per well in a volume of 100 µL and cultured for 24 h. Normal cell lines (HaCaT, HMEC‐1, MRC‐5, and HEK‐293) were seeded in 96‐well plates at a density of 10 000 cells per well in a volume of 100 µL and cultured for 48 h. After that, only tumor cell lines were starved with 100 µL of SFM for a further 4–6 h. Subsequently, cells were treated with 100 µL of compound solutions with different concentrations for 24 h. Cells treated with SFM and 0.5% DMSO in SFM served as blank control and growth control, respectively. Ten µL of MTT solution (5 mg mL^−1) was added to each well, followed by an additional incubation period of 2 h for tumor cells and 4 h for normal cells. Finally, the solvent in each well was swapped with 100 µL of DMSO to dissolve the formazan crystals. The absorbance was measured by the plate reader at 570 nm.
(§2) The cell viability was calculated (1) Cellviability%=ODSamplegroup−ODBlank/ODGrowthgroup−ODBlank×100%

HEK-293 normal cell line = test: cells; type: cell-based
Description: as §1, §2

erythrocytes = type: cell-based; details: red cells of horse, 2 h
Description: Defibrinated horse blood (1 mL) was washed 3 times with 0.9% NaCl solution to remove plasma and then resuspended in 20 mL of 0.9% NaCl solution to obtain a red blood cell (RBC) suspension. Aliquots of the RBC suspension (100 µL) were incubated with 100 µL of compound solutions at concentrations ranging from 100 to 1.5625 µM (twofold serial dilution) for 2 h at 37 °C. RBCs treated with 0.9% NaCl solution and 1% Triton X‐100 solution served as blank and positive controls, respectively. Subsequently, the samples were centrifuged at 900 × g for 10 min, and the absorbance of the supernatant was measured at 570 nm.
The hemolysis ratio was calculated as (2) Hemolysis%=ODSamplegroup−ODBlank/ODPositivegroup−ODBlank×100%

[1] = 50% human serum (from human male AB plasma, US origin; centrifuged to remove the lipid content); details: 37 °C, up to 24 h

| cleaved bond [1] | Compound | IC50 (H460 cell line; 24 h) | IC50 (HEK-293 normal cell line; 24 h) | HC10 (concentration causing 10% of erythrocytes lysis) (erythrocytes) | other results |
| --- | --- | --- | --- | --- | --- |
|  | CC[C@H](C)[C@H](NC(=O)[C@H](CCCCN)NC(=O)[C@@H]1CCCN1C(=O)[C@H](CC(C)C)NC(=O)[C@@H](NC(=O)[C@H](CO)NC(=O)[C@H](CCC(=O)N1CCCCC1)NC(=O)[C@H](CC(C)C)NC(=O)[C@H](CC(=O)O)NC(=O)[C@H](CC(=O)O)NC(=O)[C@H](Cc1ccccc1)NC(=O)[C@@H](NC(=O)[C@H](CCCCN)NC(=O)[C@@H]1CCCN1C(=O)[C@H](Cc1ccccc1)NC(=O)[C@H](Cc1ccccc1)NC(=O)[C@H](CCC(=O)O)NC(=O)[C@H](C)N)[C@@H](C)CC)[C@@H](C)CC)C(=O)N[C@@H](CC(C)C)C(N)=O [239-1] (H-AEFFPKIFDDLE(Piperidide)SILPKIL-NH2) | 88.2 µM | > 100 µM | 97.64 µM |  |
| R-F, major | ARFFPKIFDDLE(PIP)SILPKIL-NH2 |  |  |  |  |
|  | CC(=O)O[C@H]1C(=O)[C@@]2(C)[C@H]([C@H](OC(=O)c3ccccc3)[C@]3(O)C[C@H](OC(=O)[C@H](O)[C@@H](NC(=O)c4ccccc4)c4ccccc4)C(C)=C1C3(C)C)[C@]1(OC(C)=O)CO[C@@H]1C[C@@H]2O [Paclitaxel, paclitaxel, reference compound] |  |  |  | IC50 (H460 cell line; Homo sapiens, NCI-H460, Table S11, MTT, read-out: IC50 Value of chemotherapeutics, H460): 220 ± 65 µM; IC50 (HEK-293 normal cell line; Homo sapiens, HEK293, Table S11, MTT, read-out: IC50 Value of chemotherapeutics, HEK-293): < 7 µM |
|  | AKFFPKIFDDLE(PIP)SILPKILGPLGLAG-(PEG4)6-NH2 |  |  |  | not cleaved [1]: nearly 100% remaining ratio after 24 h |
| Phe1-F | FFPKIFDDLE(PIP)SILPKIL-NH2 |  |  |  |  |
|  | CC[C@H](C)[C@H](NC(=O)[C@H](CCCCN)NC(=O)[C@@H]1CCCN1C(=O)[C@H](CC(C)C)NC(=O)[C@@H](NC(=O)[C@H](CO)NC(=O)[C@H](CCC(=O)N1CCCCC1)NC(=O)[C@H](CC(C)C)NC(=O)[C@H](CC(=O)O)NC(=O)[C@H](CC(=O)O)NC(=O)[C@H](Cc1ccccc1)NC(=O)[C@@H](NC(=O)[C@H](CCCCN)NC(=O)[C@@H]1CCCN1C(=O)[C@H](Cc1ccccc1)NC(=O)[C@@H](N)Cc1ccccc1)[C@@H](C)CC)[C@@H](C)CC)C(=O)N[C@@H](CC(C)C)C(=O)NCC(=O)N1CCC[C@H]1C(=O)N[C@@H](CC(C)C)C(=O)NCC(=O)N[C@@H](CC(C)C)C(=O)N[C@@H](C)C(=O)NCC(=O)NCCOCCOCCOCCOCCC(=O)NCCOCCOCCOCCOCCC(N)=O [compound 207] (H-FFPKIFDDLE(Piperidide)SILPKILGPLGLAG[PEG4][PEG4]-NH2) | 28 ± 1.59 µM | 44.2 ± 3.21 µM | 69.26 µM |  |
| Ala-E | AEFFPKIFDDLE(PIP)SILPKIL-NH2 |  |  |  |  |
| Phe1-F | FFPKIFDDLE(PIP)SILPKILGPLGLAG-(PEG4)4-NH2 |  |  |  |  |
|  | CC[C@H](C)[C@H](NC(=O)[C@H](CCCCN)NC(=O)[C@@H]1CCCN1C(=O)[C@H](CC(C)C)NC(=O)[C@@H](NC(=O)[C@H](CO)NC(=O)[C@H](CCC(=O)N1CCCCC1)NC(=O)[C@H](CC(C)C)NC(=O)[C@H](CC(=O)O)NC(=O)[C@H](CC(=O)O)NC(=O)[C@H](Cc1ccccc1)NC(=O)[C@@H](NC(=O)[C@H](CCCCN)NC(=O)[C@@H]1CCCN1C(=O)[C@H](Cc1ccccc1)NC(=O)[C@H](Cc1ccccc1)NC(=O)[C@H](CCCNC(=N)N)NC(=O)[C@H](C)N)[C@@H](C)CC)[C@@H](C)CC)C(=O)N[C@@H](CC(C)C)C(N)=O [239-3] (H-ARFFPKIFDDLE(Piperidide)SILPKIL-NH2) | 14.7 ± 1.22 µM | 15 ± 1.38 µM | 24.72 µM |  |
|  | CC[C@H](C)[C@H](NC(=O)[C@H](CCCCN)NC(=O)[C@@H]1CCCN1C(=O)[C@H](CC(C)C)NC(=O)[C@@H](NC(=O)[C@H](CO)NC(=O)[C@H](CCC(=O)N1CCCCC1)NC(=O)[C@H](CC(C)C)NC(=O)[C@H](CC(=O)O)NC(=O)[C@H](CC(=O)O)NC(=O)[C@H](Cc1ccccc1)NC(=O)[C@@H](NC(=O)[C@H](CCCCN)NC(=O)[C@@H]1CCCN1C(=O)[C@H](Cc1ccccc1)NC(=O)[C@@H](N)Cc1ccccc1)[C@@H](C)CC)[C@@H](C)CC)C(=O)N[C@@H](CC(C)C)C(=O)NCC(=O)NCC(=O)NCC(=O)NCC(=O)NCC(=O)NCC(=O)NCC(=O)NCCOCCOCCOCCOCCC(=O)NCCOCCOCCOCCOCCC(=O)NCCOCCOCCOCCOCCC(=O)NCCOCCOCCOCCOCCC(N)=O [compound 288] (H-FFPKIFDDLE(Piperidide)SILPKILGGGGGGG[PEG4][PEG4][PEG4][PEG4]-NH2) | > 100 µM | > 100 µM | >100 µM |  |
| Ala-K | AKFFPKIFDDLE(PIP)SILPKIL-NH2 |  |  |  |  |
|  | CC[C@H](C)[C@H](NC(=O)[C@H](CCCCN)NC(=O)[C@@H]1CCCN1C(=O)[C@H](CC(C)C)NC(=O)[C@@H](NC(=O)[C@H](CO)NC(=O)[C@H](CCC(=O)N1CCCCC1)NC(=O)[C@H](CC(C)C)NC(=O)[C@H](CC(=O)O)NC(=O)[C@H](CC(=O)O)NC(=O)[C@H](Cc1ccccc1)NC(=O)[C@@H](NC(=O)[C@H](CCCCN)NC(=O)[C@@H]1CCCN1C(=O)[C@H](Cc1ccccc1)NC(=O)[C@H](Cc1ccccc1)NC(=O)[C@@H](NC(=O)[C@H](C)N)[C@@H](C)O)[C@@H](C)CC)[C@@H](C)CC)C(=O)N[C@@H](CC(C)C)C(N)=O [239-2] (H-ATFFPKIFDDLE(Piperidide)SILPKIL-NH2) | 36.8 ± 3.25 µM | 44.8 ± 4.06 µM | 57.04 µM |  |
|  | AK(Ac)FFPKIFDDLE(PIP)SILPKIL-NH2 |  |  |  | fragment found [1]: 239-4-Ac-1 FPKIFDDLE(PIP)SILPKIL-NH2 and 239-4-Ac-2 FFPKIFDDLE(PIP)SILPKIL-NH2 |
|  | CC[C@H](C)[C@H](NC(=O)[C@H](CCCCN)NC(=O)[C@@H]1CCCN1C(=O)[C@H](CC(C)C)NC(=O)[C@@H](NC(=O)[C@H](CO)NC(=O)[C@H](CCC(=O)N1CCCCC1)NC(=O)[C@H](CC(C)C)NC(=O)[C@H](CC(=O)O)NC(=O)[C@H](CC(=O)O)NC(=O)[C@H](Cc1ccccc1)NC(=O)[C@@H](NC(=O)[C@H](CCCCN)NC(=O)[C@@H]1CCCN1C(=O)[C@H](Cc1ccccc1)NC(=O)[C@H](Cc1ccccc1)NC(=O)[C@H](CCCCN)NC(=O)[C@H](C)N)[C@@H](C)CC)[C@@H](C)CC)C(=O)N[C@@H](CC(C)C)C(N)=O [239-4] (H-AKFFPKIFDDLE(Piperidide)SILPKIL-NH2) | 22.2 ± 1.06 µM | 31.5 ± 4.28 µM | 25.61 µM |  |
|  | O=c1[nH]cc(F)c(=O)[nH]1 [5-Fluorouracil, 5-fluorouracil, reference compound] |  |  |  | IC50 (H460 cell line; Homo sapiens, NCI-H460, read-out: IC50 Value of chemotherapeutics, H460): 432 ± 61.2 µM; IC50 (HEK-293 normal cell line; Homo sapiens, HEK293, read-out: IC50 Value of chemotherapeutics, HEK-293): 430 ± 40.2 µM |
|  | CC[C@H](C)[C@H](NC(=O)[C@H](CCCCN)NC(=O)[C@@H]1CCCN1C(=O)[C@H](CC(C)C)NC(=O)[C@@H](NC(=O)[C@H](CO)NC(=O)[C@H](CCC(=O)N1CCCCC1)NC(=O)[C@H](CC(C)C)NC(=O)[C@H](CC(=O)O)NC(=O)[C@H](CC(=O)O)NC(=O)[C@H](Cc1ccccc1)NC(=O)[C@@H](NC(=O)[C@H](CCCCN)NC(=O)[C@@H]1CCCN1C(=O)[C@H](Cc1ccccc1)NC(=O)[C@@H](N)Cc1ccccc1)[C@@H](C)CC)[C@@H](C)CC)C(=O)N[C@@H](CC(C)C)C(=O)NCC(=O)N1CCC[C@H]1C(=O)N[C@@H](CC(C)C)C(=O)NCC(=O)N[C@@H](CC(C)C)C(=O)N[C@@H](C)C(=O)NCC(=O)NCCOCCOCCOCCOCCC(N)=O [compound 204] (H-FFPKIFDDLE(Piperidide)SILPKILGPLGLAG[PEG4]-NH2) | 20 ± 1.05 µM | 34.1 ± 3.41 µM | 46.10 µM |  |
|  | N.N.[Cl][Pt][Cl] [Cisplatin, cisplatin, reference compound] |  |  |  | IC50 (H460 cell line; Table S11, MTT, read-out: IC50 Value of chemotherapeutics, H460): 203 ± 26.9 µM; IC50 (HEK-293 normal cell line; Table S11, MTT, read-out: IC50 Value of chemotherapeutics, HEK-293): 162 ± 18.8 µM |
| F-F, major | ATFFPKIFDDLE(PIP)SILPKIL-NH2 |  |  |  |  |
